This note sets out measurements from patent US6657086B2, “C2-substituted indan-1-ols and their derivatives, processes for their preparation and their use as pharmaceuticals” (Aventis Pharma Deutschland GmbH, priority 2001, dated 2003).

One data set deals with female NMRI mice. Kind of data set: Anorectic action: cumulative evaporated milk consumption after 24 h feed removal. In kind it is in vivo. The following applies: compared with control animals. On the procedure:
The activity of the compounds was assayed as follows:
The anorectic action was tested on female NMRI mice. After removal of feed for 24 hours, the preparation to be tested was administered intraperitoneally (ip) or by gavage (po). The animals were housed singly and, with free access to drinking water, they were offered evaporated milk 30 minutes after administration of the preparation. The consumption of evaporated milk was determined and the general behavior of the animals was monitored every half an hour for 7 hours. The measured milk consumption was compared to that of vehicle-treated control animals.

As a reminder, the melting point is the temperature of the solid-liquid transition. As to `CS(=O)(=O)C1Cc2cc(Cl)ccc2C1O` (stereo not shown) [Example 1, 5-Chloro-2-methylsulfonylindan-1-ol], the melting point is 163 °C. The “Reduction in cumulative milk consumption as % of the control” value in the data set on female NMRI mice (dose 20 mg/kg) was found to be 50%.

`CCS(=O)(=O)C1Cc2cc(Cl)ccc2C1O` (stereo not shown) [Example 3, 5-Chloro-2-ethanesulfonylindan-1-ol] had a melting point of 145 °C. As for `CSC1Cc2cc(Cl)ccc2C1O` (stereo not shown) [Example 4, 5-Chloro-2-methylsulfanylindan-1-ol], in the data set with female NMRI mice (dose 50 mg/kg), the “Reduction in cumulative milk consumption as % of the control” value came out at 85%.
